{
  "source": "the SangsterLogP compilation",
  "key": {"[1]": {"assay": "method code SF-AS, from DOI: 10.1023/a:1021720128725"}, "[2]": {"assay": "method code SF-RC,AS, from DOI: 10.1016/s0022-3565(25)22658-1, PMID: 3367302", "details": "pH 7.4"}, "[3]": {"assay": "not given", "remark": "listed apart in the source"}, "[4]": {"details": "pH 2.0"}, "[5]": {"assay": "method code SF-RC, from DOI: 10.1007/bf01870888, PMID: 7057454"}, "[6]": {"assay": "method code SF-AS, from DOI: 10.2307/3574491, PMID: 940937", "details": "pH 7.4"}, "[7]": {"assay": "not given", "remark": "listed apart in the source"}, "[8]": {"assay": "not given", "remark": "listed apart in the source"}, "[9]": {"assay": "not given", "remark": "listed apart in the source"}, "[10]": {"assay": "not given", "remark": "listed apart in the source"}, "[11]": {"assay": "not given", "remark": "listed apart in the source"}, "[12]": {"assay": "not given", "remark": "listed apart in the source"}, "[13]": {"assay": "not given", "remark": "listed apart in the source"}, "[14]": {"assay": "method code SF-GLC, from DOI: 10.1080/00032718608066246", "details": "pH 7.0"}, "[15]": {"assay": "not given", "remark": "listed apart in the source"}, "[16]": {"assay": "not given", "remark": "listed apart in the source"}, "[17]": {"assay": "method code SF-HPLC, from DOI: 10.1021/js980008v, PMID: 9758683"}},
  "data": [
    {"smiles": "Nc1nc2c(nc(Br)n2COCCO)c(=O)[nH]1", "values": [
      {"measurement": "logP", "setting": "[1]", "result": -0.26}
    ]},
    {"smiles": "CCNC(=O)[C@@H](C)OC(=O)Nc1ccccc1", "values": [
      {"measurement": "logP", "result": 1}
    ]},
    {"smiles": "[N-]=[N+]=N[C@H]1C[C@H](n2ccc(=O)[nH]c2=O)O[C@@H]1CO", "values": [
      {"measurement": "logD", "setting": "[2]", "result": -0.37}
    ]},
    {"smiles": "Cc1ccccc1C(=N)c1ccccc1", "values": [
      {"measurement": "logP", "setting": "[3]", "result": 3.21}
    ]},
    {"smiles": "C/C=C/C=C/C(=O)O", "values": [
      {"measurement": "logD", "setting": "[4]", "result": 1.64}
    ]},
    {"smiles": "NC(N)=O", "values": [
      {"measurement": "logP", "setting": "[5]", "result": -1.54}
    ]},
    {"smiles": "Cn1c(C=O)cnc1[N+](=O)[O-]", "values": [
      {"measurement": "logD", "setting": "[6]", "result": -0.1}
    ]},
    {"smiles": "COCC(O)Cn1c([N+](=O)[O-])cnc1C", "note": "(centres undefined)", "values": [
      {"measurement": "logD", "setting": "[6]", "result": 0.04}
    ]},
    {"smiles": "CCCCCC", "values": [
      {"measurement": "logP", "setting": "[7]", "result": 3.9}
    ]},
    {"smiles": "CN(C)C(=O)Nc1ccc(Oc2ccc(Cl)cc2)cc1", "values": [
      {"measurement": "logP", "result": 3.7}
    ]},
    {"smiles": "Nc1c(Cl)cc(Cl)cc1Cl", "values": [
      {"measurement": "logP", "setting": "[8]", "result": 3.42}
    ]},
    {"smiles": "COc1ccc(/C=C/[N+](=O)[O-])cc1", "values": [
      {"measurement": "logP", "setting": "[9]", "result": 2.2}
    ]},
    {"smiles": "CC(C)(C(=O)O)C(=O)O", "values": [
      {"measurement": "logP", "setting": "[10]", "result": 0.26}
    ]},
    {"smiles": "COc1ccc(-c2cn3c(=O)c4ncn(COCCO)c4nc3[nH]2)cc1", "values": [
      {"measurement": "logP", "setting": "[1]", "result": 0.39}
    ]},
    {"smiles": "CCN(CC)CCO", "values": [
      {"measurement": "logP", "setting": "[10]", "result": 0.31}
    ]},
    {"smiles": "CC(=O)OCCOC(C)=O", "values": [
      {"measurement": "logP", "setting": "[10]", "result": 0.1}
    ]},
    {"smiles": "Cc1cccc(C)c1C(=N)c1ccccc1", "values": [
      {"measurement": "logP", "setting": "[3]", "result": 3.53}
    ]},
    {"smiles": "Cc1c(C)c2c(c(C)c1O)CCC(C)(COc1ccc(CC3SC(=O)NC3=O)cc1)O2", "note": "(centres undefined)", "values": [
      {"measurement": "logP", "setting": "[11]", "result": 2.7}
    ]},
    {"smiles": "Nc1cccc(N)c1", "values": [
      {"measurement": "logP", "setting": "[10]", "result": 0}
    ]},
    {"smiles": "Cc1ccc(C(=O)O)c(C2=NC(C)(C(C)C)C(=O)N2)c1", "note": "(centres undefined)", "values": [
      {"measurement": "logP", "setting": "[12]", "result": 1.54}
    ]},
    {"smiles": "CC(C)(C)c1cccc(C(C)(C)C)c1O", "values": [
      {"measurement": "logP", "setting": "[13]", "result": 4.92}
    ]},
    {"smiles": "CCOP(=S)(OCC)SCSP(=S)(OCC)OCC", "values": [
      {"measurement": "logP", "setting": "[12]", "result": 4}
    ]},
    {"smiles": "O=[N+]([O-])c1nccn1CCO", "values": [
      {"measurement": "logD", "setting": "[6]", "result": -0.51}
    ]},
    {"smiles": "Nc1c(Cl)c(Cl)nc(C(=O)O)c1Cl", "values": [
      {"measurement": "logP", "result": 1}
    ]},
    {"smiles": "Cc1cnc([N+](=O)[O-])n1CCO", "values": [
      {"measurement": "logD", "setting": "[6]", "result": 0.18}
    ]},
    {"smiles": "CCOC(=O)Cn1c(CC)cnc1[N+](=O)[O-]", "values": [
      {"measurement": "logD", "setting": "[6]", "result": 0}
    ]},
    {"smiles": "c1ccc2nc3ccccc3cc2c1", "values": [
      {"measurement": "logD", "setting": "[14]", "result": 3.32}
    ]},
    {"smiles": "Cc1c(F)c(F)c(COC(=O)[C@H]2[C@@H](/C=C(\\Cl)C(F)(F)F)C2(C)C)c(F)c1F", "values": [
      {"measurement": "logP", "setting": "[12]", "result": 6.5}
    ]},
    {"smiles": "O=C(O)c1ccc(O)cc1O", "values": [
      {"measurement": "logP", "setting": "[15]", "result": 1.41}
    ]},
    {"smiles": "COP(=S)(CN1C(=O)c2ccccc2C1=O)OC", "values": [
      {"measurement": "logP", "setting": "[10]", "result": 2.83}
    ]},
    {"smiles": "Cc1ccc(C(=N)c2ccc(C)cc2)cc1", "values": [
      {"measurement": "logP", "setting": "[3]", "result": 3.71}
    ]},
    {"smiles": "CCCC(C)C1(CC)C(=O)NC(=S)NC1=O", "note": "(centres undefined)", "values": [
      {"measurement": "logP", "setting": "[16]", "result": 2.54}
    ]},
    {"smiles": "CO[C@H]1CCC[C@H]2C1=C(C(=O)OC(C)OC(=O)OC1CCCCC1)N1C(=O)[C@H]([C@@H](C)O)[C@@H]21", "note": "(some centres undefined)", "values": [
      {"measurement": "logP", "setting": "[11]", "result": 3}
    ]},
    {"smiles": "CCC(=O)OCN1C(=O)NC(c2ccccc2)(c2ccccc2)C1=O", "values": [
      {"measurement": "logP", "setting": "[17]", "result": 3.34}
    ]}
  ]
}
